Where “and” joins values, the source holds several entries; their conditions need not be identical. Equal entries are not always repeated.
What was measured:
[1] = system: Plasmodium falciparum blood stage parasites; assay: Dose-response curves (parasitemia by Hoechst flow cytometry); assay type: cell-based
Description: Synchronous ring-stage or late-stage iRBC at <0.5% parasitemia were brought up to 4% hematocrit in complete culture medium and transferred to a 24-well tissue culture plate in 1 mL aliquots. […] 25 μL were removed from each well at 0, 24, 48, and 72 hours, stained with 100 μL 2 μg/mL Hoechst 33342 for 10 minutes at 37°C, and analyzed by flow cytometry as described above. IC50 values were determined according to parasitemia at 24 hours post-treatment. Parasitemia was defined as the percent of Hoechst-positive RBCs as measured by flow cytometry.

[2] = system: Plasmodium falciparum iRBC; assay: Parasite viability assay (parasitemia by flow cytometry, Giemsa blood smears); assay type: cell-based; conditions: for morphology of treated iRBC by blood smear: STAD-2 1 μM, H89 30 μM, light microscopy at 48 hours post-treatment, versus DMSO
Description: 25 μL were removed from each well every 24 hours post-treatment, and samples were stained with Hoechst 33342 and analyzed by flow cytometry. Blood smears were made every 24 hours, fixed with methanol, and stained with Giemsa for analysis by light microscopy. Images were acquired using a Nikon Eclipse E400 microscope fitted with a Nikon Digital Sight DS-5M-L1 camera (Nikon Instruments Inc.).

[3] = system: Plasmodium falciparum infected red blood cells (iRBC); assay: STAD-2 permeability: uptake of FITC-conjugated peptides by flow cytometry; assay type: cell-based
Description: (§2) Synchronous ring-stage or late-stage infected red blood cells (iRBC) and uninfected red blood cells (uRBC) were brought up to 4% hematocrit in complete culture medium. FITC-conjugated peptides were added to a final concentration of 1 μM, and cultures were incubated for 6 hours at 37°C under standard gas conditions. Following incubation, 25 μL cell mixture was removed and treated with 100 μL 2 μg/mL Hoechst 33342 for 10 minutes at 37°C. Cells were subsequently washed once in 1 mL 1X PBS, resuspended in 300 μL 1X PBS, and analyzed for Hoechst and FITC staining on a Beckman Coulter CyAn flow cytometer. 500,000 events were collected at a rate of 15,000–20,000 events per second. Data was analyzed using FlowJo X single cell analysis software (FlowJo LLC).

late-stage iRBC [4] = assay: Hemolysis (oxyhemoglobin absorbance at 415 nm); assay type: cell-based, Plasmodium falciparum; conditions: late-stage iRBC diluted in uRBC, 0 to 8% parasitemia, 1 μM, 6 hours, versus DMSO, n = 4
Description: Synchronous late-stage iRBC were mixed with uRBC in order to achieve a series of samples with stepwise decreasing parasitemia. […] The plate was incubated at 37°C under standard gas conditions for 6 hours. Following incubation, all samples were transferred to Eppendorf tubes and centrifuged at 700 rcf for 5 minutes to pellet cells. 100 μL of supernatant was removed from each tube and transferred to a 96-well, flat-bottom tissue culture plate. Oxyhemoglobin absorbance was measured at 415 nm using a SpectraMax Plus microplate spectrophotometer with SoftMax Pro 5.4 software (Molecular Devices, LLC).

PfPKA-R = assay: Immunofluorescence assay, colocalization with PKA regulatory subunit; assay type: cell-based, Plasmodium falciparum; conditions: late-stage iRBC, 1 μM FITC-conjugated peptide, 2 hours, anti-PfPKA R antibody
Description: (§1) A culture of primarily late-stage iRBC was incubated with STAD-2 or DMSO as described above. Following incubation, 50 μL of cell mixture was removed and washed twice with 1 mL 1X PBS. Cells were then resuspended in 200 μL 4% paraformaldehyde/0.0075% glutaraldehyde and transferred to a CC2 glass chamber slide (Nalge Nunc International). Cells were fixed for 30 minutes at room temperature and gently washed twice with 300 μL 1X PBS. Fixed cells were subsequently permeabilized with 0.1% Triton X-100/PBS for 10 minutes and washed. Cells were then treated with […] sodium borohydride/PBS for 10 minutes to reduce any free aldehyde groups, washed with 1X PBS, and blocked for 1 hour at room temperature with 3% BSA/PBS. Following blocking, cells were brought up in 200 μL primary antibody and left shaking at 4°C overnight. The following morning, cells were washed three times, for 10 minutes each, to remove excess primary antibody and brought up in 200 μL secondary antibody for 1 hour at room temperature. After washing, cells were counterstained with 200 μL 0.5 μg/mL Hoechst 33342 for 3 minutes at room temperature and washed a final time before removing slide chambers, mounting a coverslip with Fluoro-Gel, and sealing. Rat anti-PfPKA-R was generously donated by Gordon Langsley (Institut Cochin) and diluted 1:300 in 3% BSA/PBS. Goat anti-HsPKA-RII (Abcam) was diluted to 10 μg/mL in 3% BSA/PBS. […]

HsPKA-RII = assay: as above; assay type: cell-based, H. sapiens; conditions: late-stage iRBC, 1 μM FITC-conjugated peptide, 2 hours, anti-HsPKA RII antibody
Description: as §1

late-stage iRBC [5] = system: late-stage iRBC
Description: Late-stage cultures were brought up to 4% hematocrit in complete culture medium and transferred to a 48-well tissue culture plate at 250 μL per well. Plates were spun at 330 rcf for 5 minutes, the medium was aspirated, and cultures were resuspended in either 250 μL complete culture medium or 200 μM furosemide in complete culture medium for 10 minutes at 37°C. Plates were again spun at 330 rcf, aspirated, and resuspended in 250 μL 1 μM STAD-2, 5% D-Sorbitol, 200 μM furosemide, 130 mM glycerol, 6 μM AgNO3, or a combination of the aforementioned for 10 minutes or 2 hours. Following incubation, 25 μL were removed, stained, and analyzed by flow cytometry as described above. Ten-minute time points served as controls for 5% D-Sorbitol and furosemide activities while effects on STAD-2 uptake were determined using 2-hour time points.

[6] = target: T1, cytoadherence linked asexual protein 3.1, or CLAG3 (Plasmodium falciparum, UniProt O77310); assay: Immunoprecipitation/mass spectrometry with biotin-conjugated peptide; assay type: binding; conditions: 3D7 parasite supernatant, 16 hours at 4°C, streptavidin beads, MS-MS (S2 Table)
T1 construct: 4 X 10^8 3D7 parasites were lysed with cold 0.04% saponin in PBS; endogenous in cells; host or cells: P. falciparum 3D7 parasites (parasite supernatant of lysate)
Description: 4 X 10^8 3D7 parasites were lysed with cold 0.04% saponin in PBS for 10 minutes. The supernatant was, subsequently, separated from the pellet by centrifugation at 4000 rcf for 10 minutes at 4°C. This supernatant consisted of the RBC cytoplasm and parasite exported proteins (termed host supernatant). The pellet consisted of parasite cells; these were further lysed with […]. The soluble fraction (termed parasite supernatant) of the parasite cells was separated from the insoluble fraction by centrifuging the parasite lysate at 4000 rcf for 10 minutes at 4°C. The host supernatant and the parasite supernatant were each incubated with biotin-conjugated STAD-2 or STAD-2 scramble for 16 hours at 4°C. Peptide-protein complexes were precipitated using streptavidin-coupled Dynabeads (Life Technologies). Dynabeads were subsequently washed four times with 1X PBS, and the precipitated peptide-protein complexes were solubilized in SDS-PAGE sample buffer. Proteins were, then, fractionated on 10% SDS-PAGE, excised, and identified by MS-MS (Proteomics and Mass Spectrometry Core Facility, University of Georgia).
Sequences identified by MS-MS were searched against the NCBI non-redundant protein databases for Plasmodium falciparum (NCBI taxonomy #5833) and human (#9606)/Plasmodium (#5820) and analyzed by Mascot. Results from both database searches were cross-referenced and compiled. […]

[7] = system: uninfected red blood cells (uRBC); conditions: 1 μM FITC-conjugated peptide, 6 hours, 37°C, 4% hematocrit, Hoechst/FITC flow cytometry
Description: as §2

T1 sequence (O77310 25-1417): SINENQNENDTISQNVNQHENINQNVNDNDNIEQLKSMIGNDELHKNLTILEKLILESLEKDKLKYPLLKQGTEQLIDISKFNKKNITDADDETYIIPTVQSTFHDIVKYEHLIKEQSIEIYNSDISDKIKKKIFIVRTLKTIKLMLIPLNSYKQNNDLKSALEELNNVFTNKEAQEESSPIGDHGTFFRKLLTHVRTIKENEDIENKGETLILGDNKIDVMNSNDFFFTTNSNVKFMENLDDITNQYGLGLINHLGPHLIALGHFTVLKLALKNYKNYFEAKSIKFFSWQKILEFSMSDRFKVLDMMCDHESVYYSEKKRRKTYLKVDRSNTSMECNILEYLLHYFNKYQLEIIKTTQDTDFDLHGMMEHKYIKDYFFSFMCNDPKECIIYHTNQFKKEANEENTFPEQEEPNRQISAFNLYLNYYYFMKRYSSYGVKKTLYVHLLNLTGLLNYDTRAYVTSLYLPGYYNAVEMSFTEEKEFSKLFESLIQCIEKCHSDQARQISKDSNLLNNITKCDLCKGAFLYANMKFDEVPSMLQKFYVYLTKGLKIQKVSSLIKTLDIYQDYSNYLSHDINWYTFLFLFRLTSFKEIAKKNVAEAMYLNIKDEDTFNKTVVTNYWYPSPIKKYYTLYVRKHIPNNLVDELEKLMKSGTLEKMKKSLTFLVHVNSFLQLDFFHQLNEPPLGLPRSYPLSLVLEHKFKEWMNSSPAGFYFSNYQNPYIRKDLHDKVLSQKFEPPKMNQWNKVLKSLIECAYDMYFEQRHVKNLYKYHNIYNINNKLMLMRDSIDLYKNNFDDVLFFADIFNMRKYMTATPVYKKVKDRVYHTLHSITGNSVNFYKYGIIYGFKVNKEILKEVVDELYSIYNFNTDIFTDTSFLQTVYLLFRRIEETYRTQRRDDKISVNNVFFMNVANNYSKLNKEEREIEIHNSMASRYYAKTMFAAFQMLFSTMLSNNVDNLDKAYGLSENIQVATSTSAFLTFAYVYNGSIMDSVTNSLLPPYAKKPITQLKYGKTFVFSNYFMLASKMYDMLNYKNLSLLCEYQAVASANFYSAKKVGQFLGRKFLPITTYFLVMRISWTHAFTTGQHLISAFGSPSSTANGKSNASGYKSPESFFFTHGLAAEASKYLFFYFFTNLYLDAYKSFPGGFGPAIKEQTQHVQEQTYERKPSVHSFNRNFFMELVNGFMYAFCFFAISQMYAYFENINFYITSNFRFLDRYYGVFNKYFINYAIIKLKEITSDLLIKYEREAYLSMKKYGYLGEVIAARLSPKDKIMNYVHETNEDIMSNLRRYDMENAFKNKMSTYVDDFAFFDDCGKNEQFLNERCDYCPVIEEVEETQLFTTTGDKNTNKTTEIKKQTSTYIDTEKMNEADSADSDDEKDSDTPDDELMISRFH

O=S(=O)(NCCNC/C=C/c1ccc(Br)cc1)c1cccc2cnccc12 [H89]
IC50 ([1]; late-stage CS2 parasites, serial dilutions 100-0.78 μM, 24 hours, Hoechst flow cytometry, n = 2 (S5 Fig), read-out: H89 in vitro IC50): 30 µM and ~30 µM
morphology of treated iRBC by blood smear ([2]; late-stage iRBC): clear morphological changes including the notable absence of a digestive vacuole

CC(C)C[C@H](NC(=O)[C@H](C)NC(=O)[C@]1(C)CCCC=CCCC[C@](C)(NC(=O)[C@H](CO)NC(=O)[C@@H](NC(=O)[C@H](CC(C)C)NC(=O)[C@H](Cc2ccccc2)NC(=O)[C@H](CCCCN)NC(=O)[C@H](C)NC(=O)[C@H](CC(C)C)NC(=O)[C@H](CCCCN)NC(=O)[C@H](CCCCN)NC(=O)CCNC(=S)Nc2ccc3c(c2)C(=O)OC32c3ccc(O)cc3Oc3cc(O)ccc32)C(C)C)C(=O)N[C@@H](C)C(=O)N[C@@H](CC(C)C)C(=O)N[C@@H](CCCCN)C(=O)N1)C(=O)N[C@@H](CCCCN)C(N)=O [STAD-2]
uptake by synchronous ring-stage and late-stage iRBC ([3]; 1 μM FITC-conjugated peptide, 6 hours, flow cytometry, 2way ANOVA p<0.001, n = 3-6): significantly increased uptake
permeability in iRBC ([3]; CS2 iRBC, 1 μM FITC-conjugated peptide, 6 hours, 37°C, 4% hematocrit, Hoechst/FITC flow cytometry): significant permeability
permeability to iRBC among stapled peptides (median fluorescence intensity) ([3]; iRBC, 1 μM stapled FITC-conjugated peptides, 6 hours, flow cytometry, n = 2-6 (Fig 7)): clearly permeable
permeability across parasite strains ([3]; late-stage CS2, Dd2, 3D7, Hb3 iRBC, 1 μM FITC-conjugated peptide, 2 hours, flow cytometry, n = 2 (S1 Fig)): comparable levels of permeability
time to near-maximum levels of uptake ([3]; late-stage iRBC, 1 μM FITC-conjugated peptide for 1, 2, 3 or 6 hours, flow cytometry, n = 3 (S2 Fig)): ≤ 3 h
effect on parasitemia relative to DMSO-treated controls, dose-response ([1]; ring- and late-stage iRBC, 0, 0.5, 1, 2, 5 μM, 24 hours post-treatment, n = 3): concentration-dependent decrease in parasitemia
viability of P. falciparum strains ([2]; late-stage CS2, 3D7, Dd2, Hb3, 1 μM FITC-conjugated peptide, parasitemia at 24, 48, 72 hours, n = 3 (S3 Fig)): reduced viability in CS2, Dd2, and Hb3 strains
parasitemia 6 hours post-treatment ([2]; late-stage iRBC, 1 μM FITC-conjugated peptide, 6 hours, flow cytometry, n = 7 (S4 Fig)): Reduction in parasitemia was evident
morphology of treated iRBC by blood smear ([2]; late-stage iRBC): did not differ morphologically from DMSO controls
parasitemia relative to DMSO controls over 72 hours ([2]; synchronous ring- and late-stage iRBC, 1 μM, flow cytometry every 24 hours for 72 hours, significant by 48 hours (p<0.001), n = 3): significantly decreased parasitemias
iRBC lysis (oxyhemoglobin A415 in medium) (late-stage iRBC [4]): significantly greater than controls
colocalization with PfPKA-R (PfPKA-R): did not definitively colocalize
colocalization with HsPKA-RII (HsPKA-RII): did not definitively colocalize
STAD-2 uptake, co-incubation with AgNO3 (late-stage iRBC [5]; 1 μM STAD-2 + 6 μM AgNO3 (AQP1 inhibitor), 2 hours, flow cytometry, n = 2): no apparent change in STAD-2 uptake
STAD-2 uptake, co-treatment with furosemide alone (late-stage iRBC [5]; 1 μM STAD-2 + 200 μM furosemide (PSAC inhibitor), 2 hours, pre-treatment with medium, flow cytometry, n = 3): no discernible effect on STAD-2 uptake
STAD-2 uptake, co-incubation with glycerol (late-stage iRBC [5]; 1 μM STAD-2 + 130 mM glycerol (AQP3 solute), 2 hours, flow cytometry, n = 2): no apparent change in STAD-2 uptake
STAD-2 uptake, co-incubation with D-Sorbitol (late-stage iRBC [5]; 1 μM STAD-2 + 5% D-Sorbitol (PSAC solute), 2 hours, flow cytometry, n = 2): slight reduction of STAD-2 uptake
STAD-2 uptake, furosemide pre-incubation then co-treatment (late-stage iRBC [5]; 200 μM furosemide 10 minutes pre-incubation, then 1 μM STAD-2 + 200 μM furosemide 2 hours, p = 0.0557, n = 3): consistent but statistically insignificant decrease
association with CLAG3 by IP/MS [6]: showed association
permeability in uRBC [7]: only a nominal amount

Reference: paper PMC4444124, “The Stapled AKAP Disruptor Peptide STAD-2 Displays Antimalarial Activity through a PKA-Independent Mechanism” (PLoS ONE, 2015)
